Measurements published in US6300501A, “Histidine-(N-benzyl glycinamide) inhibitors of protein farnesyl transferase” (Warner-Lambert Company, priority 1998, dated 2001).
Read-outs that look alike come from different tables or passages of the source.

Key:
[1] = target: T1, SF9 affinity purified rat farnesyl protein transferase (Rattus norvegicus, UniProt Q02293+Q04631); assay: PFT inhibitory activity (radiolabeled farnesyl pyrophosphate, streptavidin bead assay); type: biochemical
T1 construct: made in house; host or cells: Sf9 insect cells (baculovirus system inferred from b7)
T1 sequence (Q02293 whole entry, one chain of several): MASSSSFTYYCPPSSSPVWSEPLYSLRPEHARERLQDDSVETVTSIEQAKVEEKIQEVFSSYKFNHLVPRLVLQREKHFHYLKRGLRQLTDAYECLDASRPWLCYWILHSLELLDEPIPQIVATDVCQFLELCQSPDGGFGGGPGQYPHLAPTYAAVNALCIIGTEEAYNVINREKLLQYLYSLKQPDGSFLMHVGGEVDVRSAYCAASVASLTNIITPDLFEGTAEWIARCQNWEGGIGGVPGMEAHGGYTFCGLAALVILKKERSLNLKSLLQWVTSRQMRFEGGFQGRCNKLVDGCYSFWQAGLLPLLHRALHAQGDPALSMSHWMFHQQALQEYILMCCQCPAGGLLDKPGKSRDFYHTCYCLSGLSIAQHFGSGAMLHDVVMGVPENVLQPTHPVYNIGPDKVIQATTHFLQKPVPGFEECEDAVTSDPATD
How it was run: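 HEPES pH 7.4 with 5 mM potassium phosphate (also run without), 20 μM ZnCl2, 5 mM DTT, 5 mM MgCl2, 0.1% PEG 8000; [3H]farnesyl pyrophosphate 134 nM and biotinyl-Ahe-TKCVIM peptide 0.2 μM final. Incubated 30 min at 30° C, stopped with acidic magnesium acetate/streptavidin bead buffer; bead-bound radioactivity counted.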

[2] = test system: ras farnesylation in ras-transformed cells; assay: Gel shift assay; type: cell-based; details: ras-transformed cells, 18-hour incubation; read-out: Gel Shift (μM) MED (minimal effective dose to observe inhibition of ras farnesylation)
How it was run: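 Ras-transformed cells (2×10^6 per condition) treated with farnesylation inhibitor at varying concentrations for 18 h. Ras immunoprecipitated from lysates with Y13-259, resolved on 14% SDS gels and detected by pan-ras Western blot with ECL, farnesylated and unfarnesylated ras separating by mobility shift.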

[3] = test system: H61 cells: NIH transformed 3T3 H-ras cells; assay: Clonogenic assay (6 well plates, soft agar); type: cell-based; details: colonies counted after Day 13, read-out: Clonogenic Assay IC50
How it was run: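 Soft-agar colony formation: cells seeded in 0.3% agar top layer with 20% calf serum over a 0.6% agar base, drug or DMSO added at 4 µL per mL agar/medium. Incubated at 37 °C, 5% CO2; INT (1 mg/mL) added on day 13 to stain colonies.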

[4] = test system: H61 tumor cell xenografts; assay: In vivo assay: H61 tumor xenografts in nude mice
Procedure: The compound described in Example 15 was tested for its ability to inhibit the growth of H61 tumor cell xenografts in nude mice. H61 Cells are fibroblasts transformed to a malignant state by transfection with an activated mutant form of human h-ras. Ten to 30 mg fragments of H61 tumors were inoculated SC (subcutaneously) in the axial region into female nude mice with a trocar needle on day zero of the experiment. The mice were randomized to treatment groups and were then given SC injections of the compound described in Example 15 suspended in 10% cremofor/10% ethanol/80% water twice each day on Days 3-17 of the experiment. At Day 12 of the experiment, the median control tumor burden was 1958 mg as assessed by caliper measurements.

[5] = test system: EJ-1 human bladder carcinoma, HT1080 human fibrosarcoma and human colon carcinoma xenografts; details: 100 mg/kg; cited from earlier work
[6] = test system: human lung carcinoma with K-ras mutation and p53 deletion; details: nude mice; cited from earlier work
[7] = test system: mammary and salivary carcinomas; details: daily administration; cited from earlier work
[8] = HEPES buffer pH 7.4, without 5 mM potassium phosphate, read-out: IC50 (μM) Hepes
[9] = HEPES buffer pH 7.4 containing 5 mM potassium phosphate, read-out: IC50 (μM) 5 mM K3 PO4 -2

SMILES: CC(C)(CNC(=O)CN(Cc1ccc(OCc2ccccc2)cc1)C(=O)[C@H](Cc1cnc[nH]1)NC(=O)OCc1ccccc1)c1ccccc1 [Example 15, (S)-[1-{(4-Benzyloxy-benzyl)-[(2-methyl-2-phenyl-propylcarbamoyl)-methyl]-carbamoyl}-2-(3H-imidazole-4-yl)-ethyl]-carbamic Acid Benzyl Ester]
- IC50 [1, 8]: 0.12 µM
- IC50 [1, 9]: 0.007 µM
- minimal effective concentration [2]: 0.01 to 0.05 µM
- IC50 ([3]; 312 h): 190 nM
- median tumor burden ([4]; 125 mg/kg/injection SC twice each day, Days 3-17, Day 12, median control tumor burden 1958 mg): 106 mg
- inhibition of tumor growth ([4]; 125 mg/kg/injection SC twice each day, Day 12): 95%
- tumor growth delay ([4]; 125 and 78 mg/kg/injection dose levels): tumor growth delay also consistent with significant inhibition of tumor growth
- tolerability / host toxicity ([4]; 125 and 78 mg/kg/injection dose levels, nude mice): well-tolerated with minimal or no host toxicity

SMILES: CC(C)(CNC(=O)CN(Cc1ccc(-c2ccccc2)cc1)C(=O)[C@H](Cc1c[nH]cn1)NC(=O)OCc1ccccc1)c1ccccc1 [Example 52, (S)-[1-{Biphenyl-4-ylmethyl-[(2-methyl-2-phenyl-propylcarbamoyl)-methyl]-carbamoyl}-2-(1H-imidazole-4-yl)-ethyl]-carbamic Acid Benzyl Ester]
- IC50 [1, 8]: 0.48 µM
- IC50 [1, 9]: 0.004 µM
- minimal effective concentration [2]: 0.05 µM
- IC50 ([3]; 312 h): 520 nM

SMILES: O=C(CN(Cc1ccc(OCc2ccccc2)cc1)C(=O)[C@H](Cc1c[nH]cn1)NC(=O)OCc1ccccc1)NCCc1ccccc1Cl [Example 53]
- IC50 [1, 8]: 10.6 µM
- IC50 [1, 9]: 0.12 µM
- minimal effective concentration [2]: 0.2 µM
- IC50 [3]: 12400 nM

SMILES: COC(=O)[C@H](CCSC)NC(=O)[C@H](/C=C\[C@@H](/C=C/[C@@H](N)CS)C(C)C)Cc1ccccc1 [Example B1086]
- tumor growth [5]: inhibit tumor growth

SMILES: CSCC[C@H](NC(=O)c1ccc(NC[C@@H](N)CS)cc1-c1ccccc1)C(=O)O [FTI276]
- tumor growth [6]: selectively block tumor growth

SMILES: CC[C@H](C)[C@@H](CO[C@@H](Cc1ccccc1)C(=O)N[C@@H](CCS(C)(=O)=O)C(=O)OC(C)C)NC[C@@H](N)CS [L-744,832]
- tumor regression [7]: caused tumor regression
